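A five-concentration, 48-hour dose response in 96-well plates underlies each endpoint, interpolated linearly between surrounding concentrations. The concentration for 50% growth inhibition is given as GI50. At the TGI there is no net growth.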
Key:
Test in all cases: NCI-60 cell line screen, 48 h
[1] = tested on: 786-0 renal
[2] = tested on: A498 renal
[3] = tested on: A549 NSCLC
[4] = tested on: ACHN renal
[5] = tested on: BT-549 breast
[6] = tested on: CAKI-1 renal
[7] = tested on: CCRF-CEM leukemia
[8] = tested on: COLO 205 colon
[9] = tested on: DU-145 prostate
[10] = tested on: EKVX NSCLC
[11] = tested on: HCC-2998 colon
[12] = tested on: HCT-116 colon
[13] = tested on: HCT-15 colon
[14] = tested on: HL-60(TB) leukemia
[15] = tested on: HOP-62 NSCLC
[16] = tested on: HOP-92 NSCLC
[17] = tested on: HS 578T breast
[18] = tested on: HT29 colon
[19] = tested on: IGROV1 ovarian
[20] = tested on: K-562 leukemia
[21] = tested on: KM12 colon
[22] = tested on: LOX IMVI melanoma
[23] = tested on: M14 melanoma
[24] = tested on: MALME-3M melanoma
[25] = tested on: MCF7 breast
[26] = tested on: MDA-MB-231 breast
[27] = tested on: MDA-MB-435
[28] = tested on: MOLT-4 leukemia
[29] = tested on: NCI-H226 lung
[30] = tested on: NCI-H23 lung
[31] = tested on: NCI-H460 lung
[32] = tested on: NCI-H522 lung
[33] = tested on: NCI/ADR-RES ovarian
[34] = tested on: OVCAR-3 ovarian
[35] = tested on: OVCAR-4 ovarian
[36] = tested on: OVCAR-5 ovarian
[37] = tested on: OVCAR-8 ovarian
[38] = tested on: PC-3 prostate
[39] = tested on: RPMI-8226 leukemia
[40] = tested on: RXF 393 renal
[41] = tested on: SF-268 CNS
[42] = tested on: SF-295 CNS
[43] = tested on: SF-539 CNS
[44] = tested on: SK-MEL-2 melanoma
[45] = tested on: SK-MEL-28 melanoma
[46] = tested on: SK-MEL-5 melanoma
[47] = tested on: SK-OV-3 ovarian
[48] = tested on: SN12C renal
[49] = tested on: SNB-19 CNS
[50] = tested on: SNB-75 CNS
[51] = tested on: SR leukemia
[52] = tested on: SW-620 colon
[53] = tested on: T-47D breast
[54] = tested on: TK-10 renal
[55] = tested on: U251 CNS
[56] = tested on: UACC-257 melanoma
[57] = tested on: UACC-62 melanoma
[58] = tested on: UO-31 renal

Structure (SMILES): CC(NCCC(c1ccccc1)c1ccccc1)c1ccccc1 (stereo unspecified)
- GI50 [1]: 1.81 µM
- TGI [1]: 3.67 µM
- GI50 [2]: 1.45 µM
- TGI [2]: 3.93 µM
- GI50 [3]: 3.33 µM
- TGI [3]: 12.8 µM
- GI50 [4]: 3.32 µM
- TGI [4]: 12 µM
- GI50 [5]: 5.42 µM
- TGI [5]: 17.6 µM
- GI50 [6]: 2.73 µM
- TGI [6]: 9.52 µM
- GI50 [7]: 2.38 µM
- TGI [7]: 8.73 µM
- GI50 [8]: 1.53 µM
- TGI [8]: 2.85 µM
- GI50 [9]: 3.09 µM
- TGI [9]: 9.76 µM
- GI50 [10]: 3.63 µM
- TGI [10]: 16.5 µM
- GI50 [11]: 1.6 µM
- TGI [11]: 3.07 µM
- GI50 [12]: 1.66 µM
- TGI [12]: 3.08 µM
- GI50 [13]: 2.57 µM
- TGI [13]: 7.83 µM
- GI50 [14]: 2.13 µM
- TGI [14]: 4.19 µM
- GI50 [15]: 1.36 µM
- TGI [15]: 3.31 µM
- GI50 [16]: 1.05 µM
- TGI [16]: 3.56 µM
- GI50 [17]: 4.04 µM
- TGI [17]: 23.9 µM
- GI50 [18]: 1.72 µM
- TGI [18]: 3.39 µM
- GI50 [19]: 2.89 µM
- TGI [19]: 13.5 µM
- GI50 [20]: 2.42 µM
- TGI [20]: 5.23 µM
- GI50 [21]: 2.06 µM
- TGI [21]: 4.85 µM
- GI50 [22]: 1.59 µM
- TGI [22]: 2.93 µM
- GI50 [23]: 1.73 µM
- TGI [23]: 3.31 µM
- GI50 [24]: 1.75 µM
- TGI [24]: 3.44 µM
- GI50 [25]: 1.8 µM
- TGI [25]: 3.63 µM
- GI50 [26]: 2.17 µM
- TGI [26]: 5.74 µM
- GI50 [27]: 2.54 µM
- TGI [27]: 7.76 µM
- GI50 [28]: 2.59 µM
- TGI [28]: 7.15 µM
- GI50 [29]: 2.78 µM
- TGI [29]: 13.8 µM
- GI50 [30]: 2.03 µM
- TGI [30]: 7.81 µM
- GI50 [31]: 1.71 µM
- TGI [31]: 3.26 µM
- GI50 [32]: 1.81 µM
- TGI [32]: 3.48 µM
- GI50 [33]: 2.77 µM
- TGI [33]: 7.68 µM
- GI50 [34]: 3.21 µM
- TGI [34]: 10.7 µM
- GI50 [35]: 2.15 µM
- TGI [35]: 6.66 µM
- GI50 [36]: 2.88 µM
- TGI [36]: 11.4 µM
- GI50 [37]: 1.7 µM
- TGI [37]: 3.37 µM
- GI50 [38]: 2.1 µM
- TGI [38]: 6.96 µM
- GI50 [39]: 1.92 µM
- TGI [39]: 4.83 µM
- GI50 [40]: 1.46 µM
- TGI [40]: 3.23 µM
- GI50 [41]: 4.48 µM
- TGI [41]: 17.5 µM
- GI50 [42]: 1.73 µM
- TGI [42]: 3.86 µM
- GI50 [43]: 2.92 µM
- TGI [43]: 9.01 µM
- GI50 [44]: 1.9 µM
- TGI [44]: 3.77 µM
- GI50 [45]: 1.76 µM
- TGI [45]: 3.26 µM
- GI50 [46]: 1.6 µM
- TGI [46]: 2.95 µM
- GI50 [47]: 1.65 µM
- TGI [47]: 3.81 µM
- GI50 [48]: 2.42 µM
- TGI [48]: 9.13 µM
- GI50 [49]: 1.56 µM
- TGI [49]: 3.44 µM
- GI50 [50]: 2.79 µM
- TGI [50]: 10.9 µM
- GI50 [51]: 1.92 µM
- TGI [51]: 5.26 µM
- GI50 [52]: 1.71 µM
- TGI [52]: 3.42 µM
- GI50 [53]: 1.59 µM
- TGI [53]: 3.29 µM
- GI50 [54]: 1.93 µM
- TGI [54]: 4 µM
- GI50 [55]: 1.59 µM
- TGI [55]: 2.99 µM
- GI50 [56]: 1.65 µM
- TGI [56]: 4.02 µM
- GI50 [57]: 1.62 µM
- TGI [57]: 3.57 µM
- GI50 [58]: 2.19 µM
- TGI [58]: 12.1 µM
